From article PMC6560211, “ApoAI-derived peptide increases glucose tolerance and prevents formation of atherosclerosis in mice” (Diabetologia, 2019)
No end group written: not given here.

Assays:
DIO C57BL/6NTac mice = assay: GTT in diet-induced obesity (DIO) mice; type: in vivo, mouse; details: for insulin secretion in GTT: route comparison, n=6
Procedure: (§1) Male C57BL/6NTac mice (Taconic, Ejby, Denmark) at 8–9 weeks of age were acclimatised for 1 week on a normal chow diet, then changed to a high-fat diet for 2 weeks (diet-induced obesity; DIO), followed by GTT as indicated. Male Lepr^db (db/db) mice on a BKS background (Taconic) at 5 weeks of age were maintained on a normal chow diet and GTTs were performed at 5.5 and 14 weeks of age as indicated. Blood glucose levels were measured in fresh blood (C57: OneTouch Ultra2, Lifescan, Milpitas, CA, USA; db/db: GlucoSmart Swing, MSP bodmann, Bobingen, Germany) and insulin levels were assayed in serum using ELISA (Mercodia) at the times indicated in ESM Fig. 2. See ESM Methods for more details.
The effect of RG54 peptide on glucose disposal was investigated in an established insulin-resistant mouse model. DIO mice were fasted for 9 h followed by a single i.p. dose of RG54 (12 mg/kg), ApoA-I (14 mg/kg), liraglutide (0.1 mg/kg), or an equal volume of NaCl solution. After a further 3 h fasting period, GTTs were performed (Fig. 4a,b).
(§2) Fig. 4 Acute treatment with RG54 improves glucose tolerance during GTTs in three models of type 2 diabetes. Male C57Bl/6 mice fed a high-fat diet for 2 weeks (a–d) or db/db mice at 5.5 (e–h) or 14 (i–l) weeks old were fasted overnight, then treated with a single i.p. injection of NaCl (negative control, 200 μl; C57, n=12; db/db 5.5 weeks, n=6; db/db 14 weeks, n=6), liraglutide (0.1 mg/kg; C57, n=11; db/db 5.5 weeks, n=6; db/db 14 weeks, n=6), ApoA-I (14 mg/kg; C57, n=12; db/db 5.5 weeks, n=6; db/db 14 weeks, n=6) or RG54 (12 mg/kg; C57, n=12; db/db 5.5 weeks, n=6; db/db 14 weeks, n=5). After a further 3 h, mice received an i.p. glucose load (40 mg/mouse for C57; 50 mg/mouse for db/db) followed by blood and plasma collection at the indicated times, and blood glucose (a,e,i) and plasma insulin (b,f,j) concentrations were determined. Total AUC was calculated (mmol/l × min for glucose, pmol/l × min for insulin) and then normalised to the average value of the relevant NaCl control group to give relative AUC (% control) for glucose (c,g,k) and insulin (d,h,l). Values are means ± SEM. *p≤0.05, **p≤0.01, ***p≤0.001 vs NaCl control […]
We directly compared the i.p. and s.c. injection routes in DIO mice. DIO mice were fasted for 9 h, followed by a single i.p. or s.c. injection of RG54 (12 mg/kg), ApoA-I (14 mg/kg), or an equal volume of NaCl solution. After a further 3 h fasting and incubation period, GTTs were performed. […] Finally, we assessed the dose response of s.c. RG54 to find treatment concentrations with full or partial effects on glycaemic control as compared with our positive control (Fig. 6).
Male C57Bl/6 mice fed a high-fat diet for 2 weeks were fasted overnight, then treated with a single i.p. or s.c. injection of NaCl (negative control, 200 μl, n=6), ApoA-I (14 mg/kg, n=6) or RG54 (12 mg/kg, n=6). After a further 3 h, all mice received an i.p. glucose load (40 mg/mouse) followed by blood and plasma collection at the indicated times, and blood glucose (a,b) and plasma insulin (d,e) concentrations were determined for all injection routes. Total AUC was calculated (mmol/l × min for glucose, pmol/l × min for insulin) and then normalised to the average value of the relevant NaCl control group to give relative AUC (% control) for glucose (c) and insulin (f). Values are means ± SEM. ***p≤0.001 vs NaCl control […]
Male C57BL/6NTac mice were purchased from Taconic (Ejby, Denmark) at 8-9 weeks of age, acclimatised for one week on normal chow diet, then changed to a High-Fat Diet (HFD; Research Diets D12492, 60% fat content) for 2 weeks, followed by glucose tolerance testing (GTT) with timings as indicated (ESM Figure 2). Male Leprdb mice (db/db) on BKS background purchased from Taconic (BKS.Cg-m+/+Leprdb/BomTac, Ejby, Denmark) at 5 weeks of age were maintained on normal chow diet and GTTs were performed at 5.5 and 14 weeks of age with timings as indicated (ESM Figure 2). For the GTTs, mice fasted overnight […]

Lepr db (db/db) mice = assay: GTT in db/db mice; type: in vivo, mouse
Procedure: as §1, §2
We next used type 2 diabetes models with a more advanced phenotype: db/db mice at 5.5 and 14 weeks of age.
At 14 weeks of age, mice were markedly obese with a mean ± SEM body weight of 55.3 ± 0.6 g. […] One mouse was excluded from RG54 treatment group because of very high residual insulin secretion prior to the experiment.
Male C57BL/6NTac mice were purchased from Taconic (Ejby, Denmark) at 8-9 weeks of age, acclimatised for one week on normal chow diet, then changed to a High-Fat Diet (HFD; Research Diets D12492, 60% fat content) for 2 weeks, followed by glucose tolerance testing (GTT) with timings as indicated (ESM Figure 2). Male Leprdb mice (db/db) on BKS background purchased from Taconic (BKS.Cg-m+/+Leprdb/BomTac, Ejby, Denmark) at 5 weeks of age were maintained on normal chow diet and GTTs were performed at 5.5 and 14 weeks of age with timings as indicated (ESM Figure 2). For the GTTs, mice fasted overnight (9 h) were injected with the appropriate treatment, and after an additional 3 h given ip glucose (C57: 40 mg/mouse; db/db: 50 mg/mouse) followed by collection of serum samples at the indicated times. Blood glucose levels were measured in fresh blood (C57: OnetouchUltra2, Lifescan; db/db: GlucoSmart Swing, MSP bodmann) and insulin levels were assayed in serum using ELISA (Mercodia). db/db mice were independently randomized to treatments groups for GTT at each time point as no carry over was expected between experiments due to the acute nature of the treatment effects. Primary outcomes were blood glucose and insulin measurements during the GTT. C57BL/6NTac mice were euthanized immediately after each experiment whereas db/db were euthanized immediately after the GTT at 14 weeks of age. […]
and reproducible clinical symptoms of diabetes than females in these models [5; 6] thus ensuring the reproducibility of clinical symptoms between animals within the study. […]

[1] = db/db 5.5 weeks, 3 h treatment, i.p.

## Ac-AEYHAKATEHLSTLSEKAKPALEDLRQGLLPVLESFKVSFLSALEEYTKKLNTQ [RG54]
DIO C57BL/6NTac mice; DIO mice, 3 h treatment, i.p.
  fasting glucose levels: significantly lowered
  fasting insulin levels: no concomitant increase
  insulin sensitivity as measured by QUICKI: no change
DIO C57BL/6NTac mice; i.p. injection, RG54 12 mg/kg, ApoA-I 14 mg/kg
  insulin secretion in GTT: increased insulin secretion
DIO C57BL/6NTac mice; s.c. injection, 12 mg/kg
  insulin secretion in GTT: increased glucose clearance and insulin secretion
DIO C57BL/6NTac mice; single i.p. dose 12 mg/kg 3 h before GTT, vs NaCl, n=12
  levels of serum insulin in GTT: significantly increased
Lepr db (db/db) mice; [1]
  fasting glucose levels: significantly lowered
  fasting insulin secretion: no significant changes
  insulin sensitivity as measured by QUICKI: no concomitant change
Lepr db (db/db) mice; db/db 14 weeks, RG54 12 mg/kg i.p., n=5, vs NaCl
  glucose AUC: no significant change
